Laboratory results as given in patent US20220331348A1, “METHOD OF PREPARING PENTACYCLIC TRITERPENOID SAPONINS AND DRUG COMPOSITION” (CHINA PHARMACEUTICAL UNIVERSITY, priority 2019, published 2022).

Columns and labels:
[1] = system: CCl4-induced hepatic fibrosis mice; assay: CCl4-induced hepatic fibrosis mice; type: in vivo, mouse; details: for MMP2 gene expression / TGF-β gene expression / collagen 1 gene expression: CCl4-induced hepatic fibrosis mice, 5 mg/Kg, n = 8
Description: Animal: 32 C57BL/6J male mice of SPF level with 25 g were purchased from Beijing Vital River Laboratory Animal Technology Co., Ltd. All the animals maintained 12 h alternative circadian rhythm with free access to food.
Reagent: the ginsenoside Ro was purchased from Shanghai Boka Chemistry Technology Co., Ltd; CCl4 was purchased from sigma Company; and sunflower seed oil was purchased from Nanjing Yuanye Biotechnology Co., Ltd.
The mice were randomly divided into 4 groups based on weights: a blank control group (CTL), a model group (CCl4), a ginsenoside Ro low-dosage group (Low) (5 mg/kg) and a ginsenoside Ro high-dosage group (High) (10 mg/kg), totally 4 groups (with 8 mice each).
A modeling mode was that the mice were given with a CCl4-contained sunflower seed oil solution (with a CCl4 content of 25%, v/v) in a dosage of 2mL/kg by intraperitoneal injection, and the mice in the control group were injected with a corresponding dosage of the sunflower seed oil solution two times per week. From experiment day 1 onward, the mice in the control group were given with a CMC-Na solution with the mass fraction of 0.5% intragastrically every day and with sunflower seed oil two times per week by intraperitoneal injection; the mice in the model group were given with the CMC-Na solution with the mass fraction of 0.5% intragastrically every day and with the CCl4-contained sunflower seed oil solution two times per week by intraperitoneal injection; the mice in the ginsenoside Ro low-dosage group (Low) were given with 5 mg/kg of the ginsenoside Ro intragastrically every day and with a CCl4 solution two times per week by intraperitoneal injection; and the mice in the ginsenoside Ro high-dosage group (High) were given with 10 mg/kg of the ginsenoside Ro intragastrically every day and with the CCl4-contained sunflower seed oil solution two times per week by intraperitoneal injection. Administration was conducted for a total of 4 weeks.
The mice were deprived of food but not water for 12 h in advance; and the next morning, blood was taken from eyeballs, the mice were sacrificed, and livers were harvested. Right liver lobule tissues were fixed with 4% paraformaldehyde for HE stained slicing. The rest liver tissues were divided into 3 parts, which were snap-frozen in liquid nitrogen for subsequent detection of other indexes.
Whole blood was left to still standing for 2 h at room temperature, centrifugation was conducted for 15 min at 3000 rpm, and a serum was collected and sent to Pathologic Department of Hospital of Integrated Traditional Chinese and Western Medicine in Jiangsu Province for determination of levels of glutamic oxalacetic transaminase (AST) and glutamic-pyruvic transaminase (ALT) in the serum with a full-automatic biochemical analyzer.
Pretreated tissues were sent to Google Biotechnology Co., Ltd for preparing HE stained slices.
6. Extraction of Liver Tissue RNA and q-PCR Detection Liver tissues preserved at −80° C. were put in the liquid nitrogen, about 10 mg of the liver tissues were quickly dissected out, about 500 μL of a precooled Trizol reagent was added, the tissues were homogenized with the homogenizer and then left to lyse on the ice for 15 min, 100 μL of chloroform was added for vigorous shaking for 15 s, and a product was put on the ice for 10 min and then was subjected to centrifugation for 15 min at 4° C. and 12000 rpm. An upper aqueous phase was transferred to a clean 1.5 mL EP tube, […] of isopropanol was added for RNA precipitation, the EP tube was put on the ice for 10 min and then was subjected to centrifugation for 10 min at 4° C. and 12000 rpm. The supernate was discarded, precipitates were washed one time with 75% ethyl alcohol, a supernate was discarded after centrifugation, and precipitates of
RNA dissolved with the water were treated with 40 mL of DEPC. […]

[2] = system: AMPK and mTOR signaling pathways in polycystic kidney epithelial cells; assay: Western blot of AMPK and proliferation-related signal molecules in polycystic kidney epithelial cells; type: cell-based, human; details: 10 μM, 48 h, Western blot (FIG. 16)
Excerpt: Cell and reagent: complete media for human ADPKD cyst lining epithelial cell lines WT9-12 and DMEM were purchased from ATCC Company; fetal calf serums were purchased from Gibco Company; Cell Counting Kit-8 was purchased from DOJINDO Company; Click-iT® EdU Imaging Kits were purchased from Invitrogen™ Thermo Fisher Scientific Company; Caspase -3/CPP32 Colorimetric Assay Kit was purchased from BioVision Company; Annexin V/PI double-staining flow type cell apoptosis detection kits were purchased from Bender Company; and anti-Phospho-(AMPKa, mTOR, p70S6K, 4E-BP1) antibodies were purchased from Cell Signaling Technology Company.
Detection on protein expression with Western blot: cells in the control group and the treatment group (intervening the polycystic kidney epithelial cell with 10 μM of asperosaponin VI for 48 h) were collected, cells were lysed with a RIPA lysate for extraction of total proteins, the concentration of proteins was detected with a BCA method, and […] of sample proteins were taken for sample addition in sequence; after SDS-PAGE electrophoresis, the sample proteins were transferred onto PVDF membranes at a constant current (I=250 mA), were blocked for 1 h with 5% BSA and were incubated for 24 h with different primary antibodies; after the membranes were washed four times with TBST, incubation was conducted for 1.5 h at a normal temperature by using HRP-labeled second antibodies (1:10000); and after the membranes were washed four times with TBST, the proteins were developed with an ECL, and protein bands of various groups were subjected to gray scale analysis with an Image-J gel image analysis software.

[3] = CCl4 mice liver, 5 mg/kg and 10 mg/kg, 4 weeks, q-PCR (FIG. 9)
[4] = CCl4 mice, low-dosage 5 mg/kg and high-dosage 10 mg/kg intragastrically every day, 4 weeks (FIG. 8)

Row | SMILES | MMP2 gene expression [1] | TGF-β gene expression [1] | collagen 1 gene expression [1] | hepatic fibrosis induced by CCl4 ([1]; CCl4 mice, summary in words) | other results
1 | C[C@@H]1CC[C@]2(C(=O)O[C@@H]3O[C@H](CO)[C@@H](O)[C@H](O)[C@H]3O)CC[C@]3(C)C(=CC[C@@H]4[C@@]5(C)CC[C@H](O[C@@H]6OC[C@H](O)[C@H](O)[C@H]6O)C(C)(C)[C@@H]5CC[C@]43C)[C@@H]2[C@]1(C)O [(XII), ziyuglycoside I] | 8.38 ± 3.86 fold induction compared with the control group | 2.91 ± 1.10 fold induction compared with the control group | 7.65 ± 2.43 fold induction compared with the control group | effectively inhibit | 
2 | CC1(C)CC[C@]2(C(=O)O[C@@H]3O[C@H](CO)[C@@H](O)[C@H](O)[C@H]3O)CC[C@]3(C)C(=CC[C@@H]4[C@@]5(C)CC[C@H](O[C@@H]6O[C@H](C(=O)O)[C@@H](O)[C@H](O)[C@H]6O[C@@H]6O[C@H](CO)[C@@H](O)[C@H](O)[C@H]6O)C(C)(C)[C@@H]5CC[C@]43C)[C@@H]2C1 [(I), ginsenoside Ro] |  |  |  | significantly inhibit | mRNA expression level of -SMA [1, 3]: significantly lowered; mRNA expression level of MMP2 [1, 3]: significantly lowered; mRNA expression level of TGF [1, 3]: significantly lowered; mRNA expression level of collagen 1 [1, 3]: significantly lowered; level of the ALT in the serum [1, 4]: significantly lowered; level of the AST in the serum [1, 4]: significantly lowered; inflammatory responses of hepatic fibrosis animal models ([1]; CCl4 mice, summary in words): significantly inhibit
3 | C[C@@H]1O[C@@H](O[C@H]2[C@H](O[C@H]3CC[C@@]4(C)[C@@H](CC[C@]5(C)[C@@H]4CC=C4[C@@H]6CC(C)(C)CC[C@]6(C(=O)O[C@@H]6O[C@H](CO[C@@H]7O[C@H](CO)[C@@H](O[C@@H]8O[C@@H](C)[C@H](O)[C@@H](O)[C@H]8O)[C@H](O)[C@H]7O)[C@@H](O)[C@H](O)[C@H]6O)CC[C@]45C)[C@]3(C)CO)OC[C@H](O)[C@@H]2O)[C@H](O)[C@H](O)[C@H]1O [(XI), hederacoside C] | 7.65 ± 4.03 fold induction compared with the control group | 2.96 ± 1.01 fold induction compared with the control group | 8.07 ± 3.27 fold induction compared with the control group | effectively inhibit | 
4 | C[C@@H]1O[C@@H](O[C@H]2[C@H](O[C@H]3CC[C@@]4(C)[C@@H](CC[C@]5(C)[C@@H]4CC=C4[C@@H]6CC(C)(C)CC[C@]6(C(=O)O)CC[C@]45C)[C@]3(C)CO)OC[C@H](O)[C@@H]2O)[C@H](O)[C@H](O)[C@H]1O [(X), α-hederin] | 6.37 ± 5.73 fold induction compared with the control group | 2.75 ± 0.99 fold induction compared with the control group | 7.93 ± 2.28 fold induction compared with the control group | effectively inhibit | 
5 | C[C@@H]1CC[C@]2(C(=O)O)CC[C@]3(C)C(=CC[C@@H]4[C@@]5(C)CC[C@H](O[C@@H]6OC[C@H](O)[C@H](O)[C@H]6O)C(C)(C)[C@@H]5CC[C@]43C)[C@@H]2[C@]1(C)O [(XIII), ziyuglycoside II] | 7.38 ± 3.48 fold induction compared with the control group | 3.03 ± 0.76 fold induction compared with the control group | 8.16 ± 3.37 fold induction compared with the control group | effectively inhibit | 
6 | CC1(C)CC[C@]2(C(=O)O[C@@H]3O[C@H](CO[C@@H]4O[C@H](CO)[C@@H](O)[C@H](O)[C@H]4O)[C@@H](O)[C@H](O)[C@H]3O)CC[C@]3(C)C(=CC[C@@H]4[C@@]5(C)CC[C@H](O[C@@H]6OC[C@H](O)[C@H](O)[C@H]6O)[C@@](C)(CO)[C@@H]5CC[C@]43C)[C@@H]2C1 [(II), asperosaponin VI] |  |  |  |  | phosphorylation level of 4E-BP1 [2]: lowered; phosphorylation level of AMPKa [2]: increased; phosphorylation level of mTOR [2]: lowered; phosphorylation level of p70S6K [2]: lowered
